In ChEMBL document CHEMBL5126527, “Emerging targeted protein degradation tools for innovative drug discovery: From classical PROTACs to the novel and beyond” (Eur J Med Chem, 2022):

Tests used:
[1] = molecular target: Protein cereblon/Tyrosine-protein kinase BTK (Homo sapiens, UniProt Q06187+Q96SW2); experiment: Protac activity at CRBN/BTK in human MOLM-14 cells assessed as induction of BTK degradation incubated for 24 hrs by Western blot analysis; format: cell-based
MOLM-14 = experiment: Cytotoxicity against human MOLM-14 cells assessed as inhibition of cell growth incubated for 72 hrs by alamar blue assay; format: functional, cell-based; details: MOLM-14, 72 h
A549 = experiment: Antiproliferative activity against human A549 cells assessed as cell growth inhibition measured after 72 hrs by CCK-8 assay; format: functional, cell-based; details: A549, 72 h
[2] = molecular target: E3 ubiquitin-protein ligase Mdm2 (Homo sapiens, UniProt Q00987); experiment: Binding affinity to human MDM2 assessed as inhibition constant by competitive binding based fluorescence polarization analysis
Chain of E3 ubiquitin-protein ligase Mdm2 (Q00987 whole entry): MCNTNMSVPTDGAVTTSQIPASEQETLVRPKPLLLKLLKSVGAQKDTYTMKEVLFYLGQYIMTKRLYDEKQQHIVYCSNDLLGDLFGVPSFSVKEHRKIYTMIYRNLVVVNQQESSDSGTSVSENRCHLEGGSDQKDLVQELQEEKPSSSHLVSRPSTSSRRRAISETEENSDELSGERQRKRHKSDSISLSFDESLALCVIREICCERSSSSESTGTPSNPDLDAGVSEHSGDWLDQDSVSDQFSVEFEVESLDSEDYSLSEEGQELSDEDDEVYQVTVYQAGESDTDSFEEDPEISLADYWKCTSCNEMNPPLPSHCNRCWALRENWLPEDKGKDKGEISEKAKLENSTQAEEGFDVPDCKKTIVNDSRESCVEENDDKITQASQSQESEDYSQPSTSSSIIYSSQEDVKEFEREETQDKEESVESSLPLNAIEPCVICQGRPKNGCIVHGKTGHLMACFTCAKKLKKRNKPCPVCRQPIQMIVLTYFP

Chain of Protein cereblon/Tyrosine-protein kinase BTK (Q06187 whole entry): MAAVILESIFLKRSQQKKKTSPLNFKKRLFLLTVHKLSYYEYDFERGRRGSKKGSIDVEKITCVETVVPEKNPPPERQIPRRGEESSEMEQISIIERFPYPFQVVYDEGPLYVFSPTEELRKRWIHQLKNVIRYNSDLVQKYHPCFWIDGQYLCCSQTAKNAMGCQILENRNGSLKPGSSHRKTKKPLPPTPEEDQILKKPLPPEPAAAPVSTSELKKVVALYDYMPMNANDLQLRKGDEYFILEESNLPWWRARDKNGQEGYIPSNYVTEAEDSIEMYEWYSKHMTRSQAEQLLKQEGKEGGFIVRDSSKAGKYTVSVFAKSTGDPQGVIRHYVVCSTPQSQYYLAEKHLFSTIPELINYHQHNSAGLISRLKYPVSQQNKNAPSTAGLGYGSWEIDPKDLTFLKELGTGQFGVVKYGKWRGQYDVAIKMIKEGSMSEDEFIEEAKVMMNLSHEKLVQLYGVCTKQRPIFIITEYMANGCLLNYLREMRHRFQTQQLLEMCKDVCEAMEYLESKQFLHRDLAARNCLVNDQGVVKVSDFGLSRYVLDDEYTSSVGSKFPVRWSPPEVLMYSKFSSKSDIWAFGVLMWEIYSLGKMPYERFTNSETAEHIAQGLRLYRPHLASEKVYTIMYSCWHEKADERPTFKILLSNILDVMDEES
Chain of Protein cereblon/Tyrosine-protein kinase BTK (Q96SW2 whole entry): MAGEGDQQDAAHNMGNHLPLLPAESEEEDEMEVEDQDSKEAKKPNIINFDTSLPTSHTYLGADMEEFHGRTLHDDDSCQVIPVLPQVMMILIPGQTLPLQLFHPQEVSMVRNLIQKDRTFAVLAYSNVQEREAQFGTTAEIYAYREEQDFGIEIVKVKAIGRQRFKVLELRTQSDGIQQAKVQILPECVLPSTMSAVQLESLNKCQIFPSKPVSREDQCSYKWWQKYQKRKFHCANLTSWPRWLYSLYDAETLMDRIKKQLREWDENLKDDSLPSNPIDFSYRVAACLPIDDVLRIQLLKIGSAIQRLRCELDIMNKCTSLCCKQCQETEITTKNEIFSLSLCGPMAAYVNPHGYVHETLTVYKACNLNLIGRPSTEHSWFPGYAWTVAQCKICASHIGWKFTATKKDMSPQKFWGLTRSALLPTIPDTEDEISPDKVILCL

| EC50 [1] | Compound | IC50 (MOLM-14) | IC50 (A549) | Ki [2] |
| --- | --- | --- | --- | --- |
| 6.6 nM | CN(CCCNC(=O)CNc1cccc2c1C(=O)N(C1CCC(=O)NC1=O)C2=O)C(C)(C)C=C(C#N)C(=O)N1CCC[C@@H](n2nc(-c3ccc(Oc4ccccc4)cc3)c3c(N)ncnc32)C1 (some centres undefined) | 300 nM | – | – |
| – | CCOc1cc(C(C)(C)C)ccc1C1=NC(c2ccc(Cl)cc2)C(c2ccc(Cl)cc2)N1C(=O)N1CCN(CC(=O)NCCOCCOCCOCCNC(=O)CN2CCN(C(=O)N3C(c4ccc(C(C)(C)C)cc4OCC)=NC(c4ccc(Cl)cc4)C3c3ccc(Cl)cc3)CC2=O)C(=O)C1 (centres undefined) | – | 1000 nM | 100 nM |
